Experimental data taken from patent publication US20240246916A1, “7-NITRO-8-HYDROXYQUINOLINE DERIVATIVES, PREPARATION METHOD THEREFORE AND MEDICAL USE THEREOF” (Jiangsu Yahong Meditech Co., Ltd., priority 2021, published 2024).
In brackets after ≈: the same amount, converted by molar mass.

How the values were obtained:
Assay type in all cases: cell-based
[1] = test system: Escherichia coli (carbapenem-resistant clinical isolate; ATCC25922); assay: MIC by micro broth dilution (CLSI), Escherichia coli; conditions: for MIC50 / MIC90: ATCC25922, Clinical strain; for MIC50 / MIC90 / MIC: Escherichia coli; for MIC50: read-out: MIC50; for MIC90: read-out: MIC90; for MIC: Standard strain ATCC25922, read-out: MIC; for inhibitory effect against Escherichia coli compared with the reference drug nitroxoline: MIC comparison
In short: (§1)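 First, DMSO solutions were diluted over 128 to 0.06 mg/L in CAMHB; next, overnight cultures adjusted to 0.5 McFarland and diluted 100-fold were added to give 10^5 CFU/mL; then incubation ran 20 hours at 35±2° C, with CLSI 2019 M100 used for interpretation.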

[2] = test system: Mouse prostate cancer cell line RM1; assay: Inhibitory activity on cancer cells, CellTiter-Glo viability, RM1; conditions: 72 hours treatment
In short: (§2)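 24 h attachment; HUVEC 2000, UM-UC-3/RM-1 3000, LNCaP 5000 cells/well. 8-pt 2.5× dilution from 100 μmol, 72 h, 37 °C/5% CO2. CellTiter-Glo; IC50 from curve fit; max = cells + DMSO vehicle, min = medium only.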

[3] = test system: Endothelial cell line HUVEC; assay: Inhibitory activity on cells, CellTiter-Glo viability, HUVEC; conditions: Homo sapiens, 72 hours treatment
In short: as §2

[4] = test system: Acinetobacter baumannii (carbapenem-resistant clinical isolates; ATCC19606); assay: MIC by micro broth dilution (CLSI), Acinetobacter baumannii; conditions: for MIC50 / MIC90: ATCC19606, Clinical strain; for MIC50 / MIC90 / MIC: Acinetobacter baumannii; for MIC50: read-out: MIC50; for MIC90: read-out: MIC90; for MIC: Standard strain ATCC19606, read-out: MIC; for inhibitory effect against Acinetobacter baumannii compared with the reference drug nitroxoline: MIC comparison
In short: as §1

[5] = test system: Prostate cancer cell line LNcaP; assay: Inhibitory activity on cancer cells, CellTiter-Glo viability, LNcaP; conditions: Homo sapiens, 72 hours treatment
In short: as §2

[6] = test system: Bladder cancer cell line UM-UC-3; assay: Inhibitory activity on cancer cells, CellTiter-Glo viability, UM-UC-3; conditions: Homo sapiens, UMUC3, 72 hours treatment
In short: as §2

[7] = test system: Staphylococcus aureus (methicillin-resistant and sensitive clinical isolates; ATCC29213); assay: MIC by micro broth dilution (CLSI), Staphylococcus aureus; conditions: for MIC50 / MIC90: Clinical strain; for MIC50: read-out: MIC50; for MIC90: read-out: MIC90; for MIC: Standard strain ATCC29213, read-out: MIC
In short: as §1

Row | Structure (SMILES) | MIC50 [1] [µg/mL] | MIC90 [1] [µg/mL] | MIC [1] [µg/mL] | inhibitory effect against Escherichia coli compared with the reference drug nitroxoline [1] | IC50 [2] [nM] | IC50 [3] [nM] | MIC50 [4] [µg/mL] | MIC90 [4] [µg/mL] | MIC [4] [µg/mL] | inhibitory effect against Acinetobacter baumannii compared with the reference drug nitroxoline [4] | IC50 [5] [nM] | IC50 [6] [nM] | MIC50 [7] [µg/mL] | MIC90 [7] [µg/mL] | MIC [7] [µg/mL]
1 | O=[N+]([O-])c1cc(Cl)c2c(Cl)ccnc2c1O [Example 29, 4,5-dichloro-7-nitroquinolin-8-ol] | 4 (≈ 15.4 µM) | 8 (≈ 30.9 µM) | 4 (≈ 15.4 µM) | comparable to that of the reference drug nitroxoline | 6500 | 6220 | 2 (≈ 7.72 µM) | 4 (≈ 15.4 µM) | 2 (≈ 7.72 µM) | comparable to that of the reference drug nitroxoline | 7030 | 9110 | 0.5 (≈ 1.93 µM) | 1 (≈ 3.86 µM) | 1 (≈ 3.86 µM)
2 | O=[N+]([O-])c1ccc2c(C(F)(F)F)ccnc2c1O [Example 62, 7-Nitro-4-trifluoromethylquinolin-8-ol] | 8 (≈ 31 µM) | 8 (≈ 31 µM) | 4 (≈ 15.5 µM) | comparable to that of the reference drug nitroxoline | 4820 | 3540 | 4 (≈ 15.5 µM) | 4 (≈ 15.5 µM) | 4 (≈ 15.5 µM) | – | 2490 | 11200 | 2 (≈ 7.75 µM) | 4 (≈ 15.5 µM) | 2 (≈ 7.75 µM)
3 | Cl.O=[N+]([O-])c1cc(Cl)c2c(C(F)(F)F)ccnc2c1O [Example 73, 5-chloro-7-nitro-4-(trifluoromethyl)-quinolin-8-ol hydrochloride] | 8 | 64 | 8 | – | 2630 | 3450 | 8 | 32 | 2 | comparable to that of the reference drug nitroxoline | 2310 | 5040 | 1 | 2 | 1
4 | COc1ccnc2c(O)c([N+](=O)[O-])ccc12 [Example 21, 4-Methoxy-7-nitroquinolin-8-ol] | 8 (≈ 36.3 µM) | 32 (≈ 145 µM) | 8 (≈ 36.3 µM) | – | 6800 | 10300 | 32 (≈ 145 µM) | 64 (≈ 291 µM) | 32 (≈ 145 µM) | – | 6750 | 4840 | 4 (≈ 18.2 µM) | 8 (≈ 36.3 µM) | 8 (≈ 36.3 µM)
5 | CN(C)C(=O)N1CCN(c2ccnc3c(O)c([N+](=O)[O-])cc(Cl)c23)CC1 [Example 35, 4-(5-Chloro-8-hydroxy-7-nitroquinolin-4-yl)-N,N-dimethylpiperazine-1-carboxamide] | > 128 | > 128 | > 128 | – | > 50000 | 27000 | > 128 | > 128 | > 128 | – | 31200 | 49700 | > 128 | > 128 | > 128
6 | O=[N+]([O-])c1cc(Cl)c2c(OC3CCCC3)ccnc2c1O [Example 59, 5-Chloro-4-(cyclopentyloxy)-7-nitroquinolin-8-ol] | 128 (≈ 415 µM) | 128 (≈ 415 µM) | 128 (≈ 415 µM) | – | 1460 | 780 | > 128 | > 128 | 128 (≈ 415 µM) | – | 1500 | 1490 | 16 (≈ 51.8 µM) | 16 (≈ 51.8 µM) | 16 (≈ 51.8 µM)
7 | COCCCOC1CCN(c2ccnc3c(O)c([N+](=O)[O-])cc(Cl)c23)CC1.Cl.Cl [Example 54, 5-chloro-4-(4-(3-methoxypropoxy)piperidin-1-yl)-7-nitroquinolin-8-ol dihydrochloride] | 32 | 64 | 64 | – | 1620 | 500 | 128 | > 128 | 64 | – | 250 | 1420 | 16 | 16 | 16
8 | CCOC(=O)N1CCN(c2ccnc3c(O)c([N+](=O)[O-])cc(Cl)c23)CC1 [Example 52, Ethyl 4-(5-chloro-8-hydroxy-7-nitroquinolin-4-yl)piperazine-1-carboxylate] | > 128 | > 128 | > 128 | – | 1420 | 530 | > 128 | > 128 | > 128 | – | 580 | 4710 | 64 (≈ 168 µM) | 128 (≈ 336 µM) | 128 (≈ 336 µM)
9 | O=[N+]([O-])c1cc(F)c2c(OCC3CC3)ccnc2c1O [Example 72, 4-(Cyclopropylmethoxy)-5-fluoro-7-nitroquinolin-8-ol] | > 128 | > 128 | > 128 | – | 3030 | 2650 | > 128 | > 128 | 64 (≈ 230 µM) | – | 1890 | 6280 | 2 (≈ 7.19 µM) | 4 (≈ 14.4 µM) | 2 (≈ 7.19 µM)
10 | O=[N+]([O-])c1cc(Cl)c2c(N3CCC(F)(F)CC3)ccnc2c1O [Example 55, 5-Chloro-4-(4,4-difluoropiperidin-1-yl)-7-nitroquinolin-8-ol] | > 128 | > 128 | > 128 | – | 2880 | 800 | > 128 | > 128 | > 128 | – | 250 | 2230 | 4 (≈ 11.6 µM) | 4 (≈ 11.6 µM) | 4 (≈ 11.6 µM)
11 | O=[N+]([O-])c1cc(F)c2c(N3CCC(F)(F)CC3)ccnc2c1O [Example 69, 4-(4,4-Difluoropiperidin-1-yl)-5-fluoro-7-nitroquinolin-8-ol] | > 128 | > 128 | > 128 | – | 2230 | 2670 | > 128 | > 128 | > 128 | – | 1330 | 4810 | 2 (≈ 6.11 µM) | 2 (≈ 6.11 µM) | 4 (≈ 12.2 µM)
12 | O=[N+]([O-])c1cc(Cl)c2c(N3CCC(C(F)(F)F)CC3)ccnc2c1O [Example 39, 5-Chloro-7-nitro-4-(4-(trifluoromethyl)piperidin-1-yl)quinolin-8-ol] | > 128 | > 128 | > 128 | – | 1250 | 1110 | > 128 | > 128 | > 128 | – | 430 | 950 | 4 (≈ 10.6 µM) | 8 (≈ 21.3 µM) | 4 (≈ 10.6 µM)
13 | CC(C)(C)C(=O)N1CCN(c2ccnc3c(O)c([N+](=O)[O-])cc(Cl)c23)CC1 [Example 45, 4-(5-Chloro-8-hydroxy-7-nitroquinolin-4-yl)-1-(2,2,2-trimethylacetyl)piperazine] | > 128 | > 128 | > 128 | – | 12100 | 10100 | > 128 | > 128 | > 128 | – | 5430 | 23600 | > 128 | > 128 | > 128
14 | O=[N+]([O-])c1ccc2c(-c3ccccc3)ccnc2c1O [Example 22, 4-Phenyl-7-nitroquinolin-8-ol] | 128 (≈ 481 µM) | 128 (≈ 481 µM) | > 128 | – | 2300 | 1460 | 128 (≈ 481 µM) | > 128 | 128 (≈ 481 µM) | – | 2310 | 1990 | 2 (≈ 7.51 µM) | 32 (≈ 120 µM) | 2 (≈ 7.51 µM)
15 | O=[N+]([O-])c1cc(Cl)c2c(N3CCCCC3)ccnc2c1O [Example 36, 5-Chloro-7-nitro-4-piperidinylquinolin-8-ol] | > 128 | > 128 | > 128 | – | 2810 | 1480 | > 128 | > 128 | > 128 | – | 960 | 2420 | 8 (≈ 26 µM) | 8 (≈ 26 µM) | 8 (≈ 26 µM)
16 | N#Cc1ccnc2c(O)c([N+](=O)[O-])ccc12 [Example 76, 8-hydroxy-7-nitroquinoline-4-carbonitrile] | 32 (≈ 149 µM) | 64 (≈ 297 µM) | 32 (≈ 149 µM) | – | 13300 | 18000 | 32 (≈ 149 µM) | 64 (≈ 297 µM) | 32 (≈ 149 µM) | – | 15200 | 38800 | 32 (≈ 149 µM) | 32 (≈ 149 µM) | 32 (≈ 149 µM)
